Assay: xn = mol fraction of the nth substance listed

NC=O + CO
Conditions	viscosity [mPa·s]
298.15 K, 100 kPa, x1 = 0.04242	0.594
298.15 K, 100 kPa, x1 = 0.1098	0.672
298.15 K, 100 kPa, x1 = 0.1552	0.728
298.15 K, 100 kPa, x1 = 0.1966	0.784
298.15 K, 100 kPa, x1 = 0.2342	0.843
298.15 K, 100 kPa, x1 = 0.3571	1.06
298.15 K, 100 kPa, x1 = 0.4211	1.2
298.15 K, 100 kPa, x1 = 0.4775	1.33
298.15 K, 100 kPa, x1 = 0.5097	1.42
298.15 K, 100 kPa, x1 = 0.5776	1.6
298.15 K, 100 kPa, x1 = 0.6744	1.9
298.15 K, 100 kPa, x1 = 0.7135	2.03
298.15 K, 100 kPa, x1 = 0.8191	2.45
298.15 K, 100 kPa, x1 = 0.8522	2.6
298.15 K, 100 kPa, x1 = 0.9099	2.86
298.15 K, 101 kPa, x1 = 0.1	0.746
298.15 K, 101 kPa, x1 = 0.2	0.861
298.15 K, 101 kPa, x1 = 0.3	1.055
298.15 K, 101 kPa, x1 = 0.3966	1.247
298.15 K, 101 kPa, x1 = 0.4978	1.484
298.15 K, 101 kPa, x1 = 0.6	1.749
298.15 K, 101 kPa, x1 = 0.7	2.067
298.15 K, 101 kPa, x1 = 0.7988	2.431
298.15 K, 101 kPa, x1 = 0.902	2.874
303.15 K, 101.3 kPa, x1 = 0.0714	0.55
303.15 K, 101.3 kPa, x1 = 0.1586	0.63
303.15 K, 101.3 kPa, x1 = 0.2422	0.74
303.15 K, 101.3 kPa, x1 = 0.32	0.85
303.15 K, 101.3 kPa, x1 = 0.3836	0.95
303.15 K, 101.3 kPa, x1 = 0.5273	1.2
303.15 K, 101.3 kPa, x1 = 0.5975	1.4
303.15 K, 101.3 kPa, x1 = 0.6822	1.6
303.15 K, 101.3 kPa, x1 = 0.7619	1.8
303.15 K, 101.3 kPa, x1 = 0.8279	2
303.15 K, 101.3 kPa, x1 = 0.917	2.3
308.15 K, 101.3 kPa, x1 = 0.0714	0.51
308.15 K, 101.3 kPa, x1 = 0.1586	0.59
308.15 K, 101.3 kPa, x1 = 0.2422	0.68
308.15 K, 101.3 kPa, x1 = 0.32	0.78
308.15 K, 101.3 kPa, x1 = 0.3836	0.87
308.15 K, 101.3 kPa, x1 = 0.5273	1.1
308.15 K, 101.3 kPa, x1 = 0.5975	1.2
308.15 K, 101.3 kPa, x1 = 0.6822	1.4
308.15 K, 101.3 kPa, x1 = 0.7619	1.6
308.15 K, 101.3 kPa, x1 = 0.8279	1.8
308.15 K, 101.3 kPa, x1 = 0.917	2.1
313.15 K, 101 kPa, x1 = 0.1	0.584
313.15 K, 101 kPa, x1 = 0.2	0.685
313.15 K, 101 kPa, x1 = 0.3	0.818
313.15 K, 101 kPa, x1 = 0.3966	0.995
313.15 K, 101 kPa, x1 = 0.4978	1.116
313.15 K, 101 kPa, x1 = 0.6	1.307
313.15 K, 101 kPa, x1 = 0.7	1.538
313.15 K, 101 kPa, x1 = 0.7988	1.78
313.15 K, 101 kPa, x1 = 0.902	2.09
313.15 K, 101.3 kPa, x1 = 0.0714	0.48
313.15 K, 101.3 kPa, x1 = 0.1586	0.54
313.15 K, 101.3 kPa, x1 = 0.2422	0.63
313.15 K, 101.3 kPa, x1 = 0.32	0.72
313.15 K, 101.3 kPa, x1 = 0.3836	0.8
313.15 K, 101.3 kPa, x1 = 0.5273	1.02
313.15 K, 101.3 kPa, x1 = 0.5975	1.1
313.15 K, 101.3 kPa, x1 = 0.6822	1.3
313.15 K, 101.3 kPa, x1 = 0.7619	1.4
313.15 K, 101.3 kPa, x1 = 0.8279	1.6
313.15 K, 101.3 kPa, x1 = 0.917	1.9
318.15 K, 101.3 kPa, x1 = 0.0714	0.46
318.15 K, 101.3 kPa, x1 = 0.1586	0.51
318.15 K, 101.3 kPa, x1 = 0.2422	0.58
318.15 K, 101.3 kPa, x1 = 0.32	0.67
318.15 K, 101.3 kPa, x1 = 0.3836	0.73
318.15 K, 101.3 kPa, x1 = 0.5273	0.92
318.15 K, 101.3 kPa, x1 = 0.5975	1.01
318.15 K, 101.3 kPa, x1 = 0.6822	1.1
318.15 K, 101.3 kPa, x1 = 0.7619	1.3
318.15 K, 101.3 kPa, x1 = 0.8279	1.4
318.15 K, 101.3 kPa, x1 = 0.917	1.6
323.15 K, 101.3 kPa, x1 = 0.0714	0.42
323.15 K, 101.3 kPa, x1 = 0.1586	0.47
323.15 K, 101.3 kPa, x1 = 0.2422	0.54
323.15 K, 101.3 kPa, x1 = 0.32	0.6
323.15 K, 101.3 kPa, x1 = 0.3836	0.66
323.15 K, 101.3 kPa, x1 = 0.5273	0.8
323.15 K, 101.3 kPa, x1 = 0.5975	0.86
323.15 K, 101.3 kPa, x1 = 0.6822	0.96
323.15 K, 101.3 kPa, x1 = 0.7619	1.07
323.15 K, 101.3 kPa, x1 = 0.8279	1.2
323.15 K, 101.3 kPa, x1 = 0.917	1.3

OCCCO + CS(C)=O
viscosity [mPa·s], 101 kPa
Conditions	293.15 K	298.15 K	303.15 K	308.15 K	313.15 K	318.15 K
x1 = 0.0513	2.47	2.13	2.03	1.84	1.7	1.61
x1 = 0.1024	2.88	2.59	2.32	2.09	1.89	1.78
x1 = 0.1534	3.26	2.95	2.63	2.35	2.14	2
x1 = 0.2043	3.74	3.35	2.99	2.67	2.4	2.24
x1 = 0.255	4.29	3.84	3.41	3.02	2.71	2.41
x1 = 0.3056	4.96	4.32	3.8	3.43	3.09	–
x1 = 0.356	5.73	5.04	4.44	3.87	3.47	–
x1 = 0.4064	6.64	5.81	5.05	4.42	3.92	–
x1 = 0.4566	7.69	6.73	5.82	5.05	4.46	–
x1 = 0.5066	9	7.73	6.65	5.81	5.08	–
x1 = 0.5565	10.6	9.09	7.76	6.67	5.81	–
x1 = 0.6063	12.5	10.6	9.02	7.72	6.7	–
x1 = 0.6556	14.7	12.5	10.6	8.96	7.67	–
x1 = 0.7055	17.6	14.8	12.4	10.4	8.88	–
x1 = 0.7549	21	17.6	14.6	12.2	10.3	–
x1 = 0.8042	25.2	21	17.3	14.3	12	–
x1 = 0.8533	30.4	25	20.5	16.8	14	–
x1 = 0.9024	36.5	29.8	24.2	19.7	16.4	–
x1 = 0.9512	43.8	35.5	28.5	23.1	19	–
